Reference: PMC11242853, “The Antimicrobial Activity of Human Defensins at Physiological Non-Permeabilizing Concentrations Is Caused by the Inhibition of the Plasma Membrane H^+-ATPases” (International Journal of Molecular Sciences, 2024)

Key:
[1] = system: Pseudomonas aeruginosa PAO1; assay: Antimicrobial spread-plate (CFU) killing assay, P. aeruginosa; format: cell-based
Procedure: (§1) To determine whether the above microbicidal concentrations exert a permeabilizing effect on fungal and bacterial membranes, the influx of the fluorescent nucleic acid-binding dye propidium iodide (PI) in cells incubated with the peptides was assessed. In cells, dye uptake reflects membrane permeabilization, as PI itself cannot permeate through an intact phospholipid bilayer. […] To select an antimicrobial but non-permeabilizing concentration of each peptide for further assays, we defined as a non-permeabilizing inhibitory concentration (NPIC) the antimicrobial inhibitory concentration (≤10% viable cells) that permeabilized ≤ 10% of cells incubated (90 min at 37 °C) in buffer solution.
(§2) Microbial susceptibility to the peptides was determined in a spread-plate assay as described previously. Briefly, cell suspensions (10^6 cells/mL) in Tris buffer (10 mM Tris-HCl, pH 7.4) were incubated for 90 min at 37 °C with 2-fold serial peptide dilutions. Peptide concentrations ranged from 0 to 2 μM. After incubation, the number of viable cells was determined by plating aliquots (100 μL) in duplicate on plates (SDA for C. albicans, TSA for P. aeruginosa, and M17G agarified medium for L. lactis) that had been dried for 30 min at room temperature in a laminar flow hood. Plates were incubated for 24–48 h at 30 °C (C. albicans and L. lactis) or 24 h at 37 °C (P. aeruginosa). Dilutions yielding 50–200 colonies were counted. Cell viability values, expressed as colony-forming units (CFUs), were calculated relative to the incubation without added peptides and represent the means ± standard deviation (SD) from duplicates of three independent experiments. For inhibition assays, unless otherwise noted, cell suspensions were preincubated (15 min at 37 °C) with the appropriate inhibitor prior to the addition of peptides, but the inhibitor was present throughout the incubation period with the peptide (90 min at 37 °C). Other specific experimental conditions are described as appropriate. In some experiments, the concentrations of human lactoferrin against C. albicans (5 μM), P. aeruginosa (1 μM), and L. lactis (0.065 μM) were used in the control assays. In various viability assays, BM2 peptide (0.25 μM), CCCP (50 μM), colistin (4 μg/mL), nystatin (50 μM), oligomycin A (16 μg/mL), piericidin A (32 μM), and TEA (10 mM) were used.

C. albicans cells [2] = assay: Extracellular potassium measurement (K+-efflux, ICP-MS); format: cell-based, Candida albicans
Procedure: Potassium measurements were performed via inductively coupled plasma mass spectrometry using an Agilent 7700x ICP-MS (Agilent Technologies, Santa Clara, CA, USA). C. albicans cells were cultured in SDB for 16–20 h at 30 °C. The cells were then subcultured in the same media to the mid-logarithmic growth phase and rapidly washed in sterile, deionized, double-distilled water. The cells (10^7 cells/mL) were immediately incubated with the peptides (NPIC) for 90 min at 37 °C. The tubes were centrifuged at 1100× g for 10 min and the supernatants were collected and stored at 4 °C until analysis. The percentage of cytosolic potassium released from cell suspensions treated with nystatin (50 μM) was determined in positive control assays. Total cellular K^+-content (100% value) was measured in the supernatant of cell suspensions previously treated with 0.5% (v/v) HClO4 alone, heated for 1 h at 95 °C, and centrifuged to remove cell debris. Results are expressed as the percentage (means ± SD) of K^+-release relative to the total cellular K^+-content from duplicates of at least three independent assays.

[3] = system: Candida albicans ATCC 10231; assay: Antimicrobial spread-plate (CFU) killing assay, C. albicans; format: cell-based; conditions: for effect of high extracellular K+ on candidacidal activity: 50 mM KCl, defensins at NPIC, hLf 5 μM, BM2 0.25 μM, nystatin 50 μM; for effect of Tok1p inhibition (TEA) on candidacidal activity: preincubation 15 min at 37 °C with 10 mM TEA+
Procedure: as §1, §2

P. aeruginosa cells = assay: Oxygen consumption measurement (polarographic), P. aeruginosa; format: cell-based, Pseudomonas aeruginosa; conditions: after 30 min; defensins 2 x NPIC, human lactoferrin 20 μM, piericidin A 32 µM; preincubated 15 min at 37 °C; untreated cells 83% ± 2%; means ± SD, three experiments
Procedure: (§3) Oxygen consumption by C. albicans and P. aeruginosa cells was determined by polarographically using a biological oxygen monitor (dual digital-model 20; Rank Brothers Ltd., Cambridge, UK) at 25 °C. The apparatus consisted of a twin water-jacketed closed sample chamber, which enabled a control experiment to be conducted concurrently. The cells were grown to mid-log phase in SDB (C. albicans) or TSB (P. aeruginosa), washed twice in Tris buffer, and resuspended in the same buffer. Cell suspensions (approximately 10^7 cells/mL) were preincubated with defensins (2 x NPIC), human lactoferrin (20 μM), or piericidin A (32 μM) for 15 min at 37 °C. Oxygen consumption was recorded at 5-min intervals for a period of 30 min. Three independent experiments were performed, and the data are means ± SD.

C. albicans cells [4] = assay: Oxygen consumption measurement (polarographic), C. albicans; format: cell-based, Candida albicans; conditions: after 30 min; defensins 2 x NPIC, human lactoferrin 20 μM, piericidin A 32 µM; preincubated 15 min at 37 °C; untreated cells 94% ± 2%; means ± SD, three experiments
Procedure: as §3

C. albicans cells [5] = assay: Total cellular ATP (BacTiter-Glo); format: cell-based, Candida albicans; conditions: defensins at NPIC, human lactoferrin 5 μM, BM2 peptide 0.25 μM; 10^6 cells/mL; BacTiter-Glo luminescence
Procedure: Total ATP was measured using the BacTiter-Glo^TM Microbial Cell Viability Assay (Promega Co., Madison, WI, USA) according to the manufacturer’s instructions. […] Aliquots (100 µL) were incubated (90 min at 37 °C) with human defensins (NPICs). Human lactoferrin (5 μM) or BM2 peptide (0.25 μM) was used as positive controls. One hundred microliters of the incubation mixture was transferred to an opaque 96-well plate, mixed with an equal volume of BacTiter-Glo^TM reagent, and incubated for 15 min in the dark. The reagent uses a thermostable luciferase to generate luminescence in an ATP-dependent manner. The emitted luminescence was detected using a Varioskan Flash multimode reader (Thermo Scientific, Waltham, MA, USA) with a 10 s shaking and 1 s integration time. A calibration curve was generated for each experiment with ATP standards ranging from 1 to 1000 nM. All assays were performed at least three times in duplicate.

C. albicans cells [6] = assay: Membrane potential monitoring with DiBAC4(3), flow cytometry; format: cell-based, Candida albicans; conditions: peptides at NPIC, hLf 5 μM, BM2 0.25 μM; DiBAC4(3) 1 µg/mL
Procedure: The membrane potential-sensitive probe DiBAC4(3) was used to monitor the transmembrane electrical potential of C. albicans cells as previously described with slight modifications. Briefly, cells were harvested from mid-log phase cultures via centrifugation and suspended in Tris buffer. The cell suspension was adjusted to 10^6 cells/mL and then incubated with DiBAC4(3) at a final concentration of 1 µg/mL for 30 min. Fluorescence was measured using a CytoFLEX S flow cytometer (Beckman Coulter) with excitation at 561 nm and emission at 690/50 nm. For each treatment, 5000 events were counted per experiment with an exposure time of 1000 ms. Results were analyzed using CytExpert 2.1 Acquisition software. As positive controls, human lactoferrin and BM2 peptide were used. Three independent experiments were performed and data are expressed as means ± SD.

## N#CC(C#N)=NNc1cccc(Cl)c1 [CCCP, carbonyl cyanide m-chlorophenylhydrazone, reference compound]
[1]; 50 µM CCCP, pH of 5.5 and 6.5
  viability of P. aeruginosa with CCCP alone, acidic extracellular pH: decreased
[1]; 50 µM CCCP, pH of 7.4, 7.7, and 8.0
  viability of P. aeruginosa with CCCP alone, alkaline pH: not significantly altered

## C[C@@H]1[C@H](O)[C@@H](C)/C=C/C=C/CC/C=C/C=C/C=C/C=C/C(O[C@H]2O[C@H](C)[C@@H](O)[C@H](N)[C@@H]2O)CC2O[C@](O)(CC(O)C(O)CCC(O)CC(O)CC(O)CC(=O)O[C@H]1C)CC(O)C2C(=O)O (stereo partly drawn) [nystatin, reference compound]
C. albicans cells [2]; nystatin 50 μM, 90 min, 37 °C, relative to total cellular K+-content (100%), ICP-MS
  K^+-release from yeast cells: 70–85%
[3]
  effect of high extracellular K+ on candidacidal activity: no effect
[3]; peptides at NPIC
  effect of Tok1p inhibition (TEA) on candidacidal activity: not altered

## C/C=C(\C)[C@H](O)[C@H](C)/C=C(C)/C=C/C/C(C)=C/Cc1nc(OC)c(OC)c(O)c1C [piericidin A, reference compound]
P. aeruginosa cells
  O2 consumption of P. aeruginosa: 17% ± 3%
C. albicans cells [4]
  oxygen consumption percentage of C. albicans: 20% ± 3%

## D-NH2-RRRFWWFRRR-CONH2 [BM2 peptide, positive control, reference compound]
C. albicans cells [5]
  increase in ATP levels compared to the untreated control: ~ 9 fold
C. albicans cells [2]; peptides at NPIC / microbicidal concentrations, 10^7 cells/mL, 90 min at 37 °C, steady state compared with maximum intracellular K+ of untreated cells
  K^+-efflux pattern in C. albicans: partial K^+-efflux
[3]
  effect of high extracellular K+ on candidacidal activity: significantly decreased
[3]; cells preincubated 15 min at 37 °C with 32 µM piericidin A, then peptides (NPIC) 90 min
  effect of piericidin A on candidacidal activity: significantly (p < 0.001) inhibited
[3]; preincubated 15 min at 37 °C with 16 μg/mL oligomycin A, peptides at NPIC
  effect of oligomycin A on candidacidal activity: significantly reduced
[3]; peptides at NPIC
  effect of Tok1p inhibition (TEA) on candidacidal activity: reduced
C. albicans cells [6]
  transmembrane electrical potential (DiBAC4(3) fluorescence): increase in DiBAC4(3) fluorescence

## colistin (polymyxin E) [reference compound]
[1]; 50 mM KCl, defensins at NPIC, hLf 1 μM, colistin 4 μg/mL
  effect of high extracellular K+ on pseudomonacidal activity: no effect
